From US8802597B2, “Herbicidal pyrimidines” (E I du Pont de Nemours and Company, priority 2003, dated 2014)

Tests used:
Type in all cases: in vivo
[1] = test system: ducksalad (Heteranthera limosa); test: Test E flooded paddy water application; settings: Flood, 21 days, scale 0 to 100 (0 no effect, 100 complete control); for Plant response rating, Ducksalad: 16 g ai/ha
In short: (§1)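 Response scored visually on a 0–100 scale (100 = complete control) at 21 days against untreated pots. Treatment was into paddy water 3 cm deep over silt loam, with plants at the 2.0–2.5-leaf stage, grown under 16-h light at 29.5/26.7 °C day/night.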

[2] = test system: early watergrass (Echinochloa oryzoides); test: Test E flooded paddy water application; settings: Flood, 21 days, scale 0 to 100 (0 no effect, 100 complete control)
In short: as §1

[3] = test system: smallflower umbrella sedge (Cyperus difformis); test: Test E flooded paddy water application; settings: Flood, 21 days, scale 0 to 100 (0 no effect, 100 complete control)
In short: as §1

[4] = test system: bearded (brdd.) sprangletop (Leptochloa fusca ssp. fascicularis); test: Test E flooded paddy water application; settings: Flood, 21 days, scale 0 to 100 (0 no effect, 100 complete control)
In short: as §1

[5] = test system: purple redstem (Ammannia coccinea); test: Test E flooded paddy water application; settings: Flood, 21 days, scale 0 to 100 (0 no effect, 100 complete control)
In short: as §1

[6] = test system: junglerice (Echinochloa colona); test: Test E flooded paddy water application; settings: Flood, 21 days, scale 0 to 100 (0 no effect, 100 complete control)
In short: as §1

[7] = test system: transplanted rice seedlings (Oryza sativa cv. ‘Japonica-M202’); test: Test E flooded paddy water application; settings: Flood, 21 days, scale 0 to 100 (0 no effect, 100 complete control)
In short: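 Greenhouse pots of Tama silt loam with weeds and rice at 2.0–2.5-leaf stage, flooded to 3 cm; compounds applied directly into paddy water, depth maintained. Visual rating versus untreated controls after 21 days, 0 (no effect) to 100 (complete control); 29.5/26.7 °C, 16-h photoperiod.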

[8] = test system: barnyardgrass (Echinochloa crus-galli); test: Test E flooded paddy water application; settings: Flood, 21 days, scale 0 to 100 (0 no effect, 100 complete control); for Plant response rating, Barnyardgrass: 16 g ai/ha
In short: as §1

[9] = test system: woolly cupgrass (Eriochloa villosa); test: Test C pre/postemergence; settings: Postemergence
In short: (§2)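 Percent control is a visual rating (0 none, 100 complete) taken against untreated plants after 12 to 14 days of greenhouse growth. Applications were made preemergence to seeded pots and postemergence to plants at the 1- to 4-leaf stage, in a non-phytotoxic surfactant-containing solvent.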

[10] = test system: morningglory (Ipomoea coccinea); test: Test C pre/postemergence; settings: Postemergence
In short: as §2

[11] = test system: chickweed (Stellaria media); test: Test C postemergence
Description: Seeds or nutlets of plant species selected from bermudagrass (Cynodon dactylon), Surinam grass (Brachiaria decumbens), cocklebur (Xanthium strumarium), corn (Zea mays), crabgrass (Digitaria sanguinalis), woolly cupgrass (Eriochloa villosa), giant foxtail (Setaria faberii), goosegrass (Eleusine indica), johnsongrass (Sorghum halepense), kochia (Kochia scoparia), lambsquarters (Chenopodium album), morningglory (Ipomoea coccinea), eastern black nightshade (Solanum ptycanthum), yellow nutsedge (Cyperus esculentus), pigweed (Amaranthus retroflexus), common ragweed (Ambrosia elatior), soybean (Glycine max), common (oilseed) sunflower (Helianthus annuus), and velvetleaf (Abutilon theophrasti) were planted and treated preemergence with test chemicals formulated in a non-phytotoxic solvent mixture which included a surfactant.
At the same time, plants selected from these crop and weed species and also winter barley (Hordeum vulgare), blackgrass (Alopecurus myosuroides), canarygrass (Phalaris minor), chickweed (Stellaria media), downy brome (Bromus tectorum), green foxtail (Setaria viridis), Italian ryegrass (Lolium multiflorum), wheat (Triticum aestivum), wild oat (Avena fatua) and windgrass (Apera spica-venti) were treated with postemergence applications of some of the test chemicals formulated in the same manner. Plants ranged in height from 2 to 18 cm (1- to 4-leaf stage) for postemergence treatments. Plant species in the flooded paddy test consisted of rice (Oryza sativa), umbrella sedge (Cyperus difformis), duck salad (Heteranthera limosa) and barnyardgrass (Echinochloa crus-galli) grown to the 2-leaf stage for testing. Treated plants and controls were maintained in a greenhouse for 12 to 14 days, after which time all species were compared to controls and visually evaluated. Plant response ratings, summarized in Table C, are based on a scale of 0 to 100 where 0 is no effect and 100 is complete control. A dash (-) response means no test result.

[12] = 125 g ai/ha, scale 0 to 100 (0 no effect, 100 complete control)

CCOC(=O)c1nc(-c2ccc(I)cc2)nc(N)c1Cl [Compound 133]
Ducksalad plant response rating ([1]; 32 g ai/ha): 100
Ducksalad plant response rating ([1]; 64 g ai/ha): 100
Ducksalad plant response rating ([1]; 125 g ai/ha): 100
Ducksalad plant response rating ([1]; 250 g ai/ha): 100
Plant response rating, Ducksalad [1]: 100
Watergrass, Early plant response rating ([2]; 64 g ai/ha): 0
Watergrass, Early plant response rating ([2]; 125 g ai/ha): 0
Watergrass, Early plant response rating ([2]; 250 g ai/ha): 0
Plant response rating, Watergrass, Early ([2]; 16 g ai/ha): 0
Plant response rating, Watergrass, Early ([2]; 32 g ai/ha): 0
Sedge, Umbrella plant response rating ([3]; 64 g ai/ha): 95
Sedge, Umbrella plant response rating ([3]; 125 g ai/ha): 100
Sedge, Umbrella plant response rating ([3]; 250 g ai/ha): 100
Plant response rating, Sedge, Umbrella ([3]; 16 g ai/ha): 0
Plant response rating, Sedge, Umbrella ([3]; 32 g ai/ha): 0
Sprangletop, Brdd. plant response rating ([4]; 64 g ai/ha): 0
Sprangletop, Brdd. plant response rating ([4]; 125 g ai/ha): 0
Sprangletop, Brdd. plant response rating ([4]; 250 g ai/ha): 0
Plant response rating, Sprangletop, Brdd. ([4]; 16 g ai/ha): 0
Plant response rating, Sprangletop, Brdd. ([4]; 32 g ai/ha): 0
Redstem plant response rating ([5]; 64 g ai/ha): 65
Redstem plant response rating ([5]; 125 g ai/ha): 75
Redstem plant response rating ([5]; 250 g ai/ha): 85
Plant response rating, Redstem ([5]; 16 g ai/ha): 0
Plant response rating, Redstem ([5]; 32 g ai/ha): 20
Junglerice plant response rating ([6]; 64 g ai/ha): 0
Junglerice plant response rating ([6]; 125 g ai/ha): 0
Junglerice plant response rating ([6]; 250 g ai/ha): 0
Plant response rating, Junglerice ([6]; 16 g ai/ha): 0
Plant response rating, Junglerice ([6]; 32 g ai/ha): 0
Rice, Transplanted plant response rating ([7]; 64 g ai/ha): 0
Rice, Transplanted plant response rating ([7]; 125 g ai/ha): 0
Rice, Transplanted plant response rating ([7]; 250 g ai/ha): 0
Plant response rating, Rice, Transplanted ([7]; 16 g ai/ha): 0
Plant response rating, Rice, Transplanted ([7]; 32 g ai/ha): 0
Barnyardgrass plant response rating ([8]; 32 g ai/ha): 0
Barnyardgrass plant response rating ([8]; 64 g ai/ha): 0
Barnyardgrass plant response rating ([8]; 125 g ai/ha): 0
Barnyardgrass plant response rating ([8]; 250 g ai/ha): 0
Plant response rating, Barnyardgrass [8]: 0
Plant response rating (scale of 0 to 100), Cupgrass, Woolly ([9]; 16 g ai/ha): 35
Plant response rating (scale of 0 to 100), Cupgrass, Woolly ([9]; 31 g ai/ha): 50
Plant response rating (scale of 0 to 100), Cupgrass, Woolly ([9]; 62 g ai/ha): 60
Cupgrass, Woolly plant response rating [9, 12]: 70
Plant response rating (scale of 0 to 100), Morningglory ([10]; 16 g ai/ha): 80
Plant response rating (scale of 0 to 100), Morningglory ([10]; 31 g ai/ha): 90
Plant response rating (scale of 0 to 100), Morningglory ([10]; 62 g ai/ha): 100
Morningglory plant response rating [10, 12]: 100
Plant response rating (scale of 0 to 100), Chickweed ([11]; 16 g ai/ha): 0
Plant response rating (scale of 0 to 100), Chickweed ([11]; 31 g ai/ha): 10
Plant response rating (scale of 0 to 100), Chickweed ([11]; 62 g ai/ha): 20
Chickweed plant response rating [11, 12]: 45

CCOC(=O)c1nc(-c2ccc(Br)cc2)nc(N)c1Cl [Compound 94, ethyl 6-amino-2-(4-bromophenyl)-5-chloro-4-pyrimidinecarboxylate]
Ducksalad plant response rating ([1]; 32 g ai/ha): 100
Ducksalad plant response rating ([1]; 64 g ai/ha): 100
Ducksalad plant response rating ([1]; 125 g ai/ha): 100
Ducksalad plant response rating ([1]; 250 g ai/ha): 100
Plant response rating, Ducksalad [1]: 100
Watergrass, Early plant response rating ([2]; 32 g ai/ha): 0
Watergrass, Early plant response rating ([2]; 64 g ai/ha): 0
Watergrass, Early plant response rating ([2]; 125 g ai/ha): 0
Watergrass, Early plant response rating ([2]; 250 g ai/ha): 0
Plant response rating, Watergrass, Early ([2]; 16 g ai/ha): 0
Sedge, Umbrella plant response rating ([3]; 32 g ai/ha): 100
Sedge, Umbrella plant response rating ([3]; 64 g ai/ha): 100
Sedge, Umbrella plant response rating ([3]; 125 g ai/ha): 100
Sedge, Umbrella plant response rating ([3]; 250 g ai/ha): 100
Plant response rating, Sedge, Umbrella ([3]; 16 g ai/ha): 100
Sprangletop, Brdd. plant response rating ([4]; 32 g ai/ha): 0
Sprangletop, Brdd. plant response rating ([4]; 64 g ai/ha): 0
Sprangletop, Brdd. plant response rating ([4]; 125 g ai/ha): 20
Sprangletop, Brdd. plant response rating ([4]; 250 g ai/ha): 40
Plant response rating, Sprangletop, Brdd. ([4]; 16 g ai/ha): 0
Redstem plant response rating ([5]; 32 g ai/ha): 65
Redstem plant response rating ([5]; 64 g ai/ha): 75
Redstem plant response rating ([5]; 125 g ai/ha): 100
Redstem plant response rating ([5]; 250 g ai/ha): 100
Plant response rating, Redstem ([5]; 16 g ai/ha): 0
Junglerice plant response rating ([6]; 32 g ai/ha): 0
Junglerice plant response rating ([6]; 64 g ai/ha): 0
Junglerice plant response rating ([6]; 125 g ai/ha): 0
Junglerice plant response rating ([6]; 250 g ai/ha): 0
Plant response rating, Junglerice ([6]; 16 g ai/ha): 0
Rice, Transplanted plant response rating ([7]; 32 g ai/ha): 0
Rice, Transplanted plant response rating ([7]; 64 g ai/ha): 10
Rice, Transplanted plant response rating ([7]; 125 g ai/ha): 10
Rice, Transplanted plant response rating ([7]; 250 g ai/ha): 20
Plant response rating, Rice, Transplanted ([7]; 16 g ai/ha): 0
Barnyardgrass plant response rating ([8]; 32 g ai/ha): 0
Barnyardgrass plant response rating ([8]; 64 g ai/ha): 0
Barnyardgrass plant response rating ([8]; 125 g ai/ha): 0
Barnyardgrass plant response rating ([8]; 250 g ai/ha): 0
Plant response rating, Barnyardgrass [8]: 0
pest or weed control at 16 g/ha ([9]; Eriochloa villosa, post-emergence, 16 g ai/ha, read-out: Plant response rating (scale of 0 to 100), Cupgrass, Woolly): 60%
pest or weed control at 31 g/ha ([9]; Eriochloa villosa, post-emergence, 31 g ai/ha, read-out: Plant response rating (scale of 0 to 100), Cupgrass, Woolly): 80%
pest or weed control at 62 g/ha ([9]; Eriochloa villosa, post-emergence, 62 g ai/ha, read-out: Plant response rating (scale of 0 to 100), Cupgrass, Woolly): 90%
pest or weed control at 125 g/ha ([9]; Eriochloa villosa, post-emergence, 125 g ai/ha, scale 0 to 100 (0 no effect, 100 complete control), read-out: Cupgrass, Woolly plant response rating): 90%
pest or weed control at 16 g/ha ([10]; Ipomoea, post-emergence, 16 g ai/ha, read-out: Plant response rating (scale of 0 to 100), Morningglory): 60%
pest or weed control at 31 g/ha ([10]; Ipomoea, post-emergence, 31 g ai/ha, read-out: Plant response rating (scale of 0 to 100), Morningglory): 80%
pest or weed control at 62 g/ha ([10]; Ipomoea, post-emergence, 62 g ai/ha, read-out: Plant response rating (scale of 0 to 100), Morningglory): 90%
pest or weed control at 125 g/ha ([10]; Ipomoea, post-emergence, 125 g ai/ha, scale 0 to 100 (0 no effect, 100 complete control), read-out: Morningglory plant response rating): 100%
pest or weed control at 31 g/ha ([11]; Stellaria media, post-emergence, 31 g ai/ha, read-out: Plant response rating (scale of 0 to 100), Chickweed): 45%
pest or weed control at 62 g/ha ([11]; Stellaria media, post-emergence, 62 g ai/ha, read-out: Plant response rating (scale of 0 to 100), Chickweed): 50%
pest or weed control at 125 g/ha ([11]; Stellaria media, post-emergence, 125 g ai/ha, scale 0 to 100 (0 no effect, 100 complete control), read-out: Chickweed plant response rating): 95%
